Test results reported in ChEMBL document CHEMBL1150976, “The selectivity of protein kinase inhibitors: a further update” (Biochem J, 2007).

Experiments:
[1] = molecular target: MAP kinase-activated protein kinase 2 (Homo sapiens) (UniProt P49137); test: Percentage MAPKAPK2 activity remaining in the presence of […]uM inhibitor; settings: at 25 µM
[2] = molecular target: Cyclin-dependent kinase 2/cyclin A (Homo sapiens) (UniProt P24941+P20248+P78396); test: Percentage CDK2-cyclinA activity remaining in the presence of 25uM inhibitor; format: protein-complex assay
[3] = molecular target: Serine/threonine-protein kinase N2 (Homo sapiens) (UniProt Q16513); test: Percentage PRK2 activity remaining in the presence of 25uM inhibitor
Sequence of Serine/threonine-protein kinase N2 (Homo sapiens) (Q16513 whole entry, looked up): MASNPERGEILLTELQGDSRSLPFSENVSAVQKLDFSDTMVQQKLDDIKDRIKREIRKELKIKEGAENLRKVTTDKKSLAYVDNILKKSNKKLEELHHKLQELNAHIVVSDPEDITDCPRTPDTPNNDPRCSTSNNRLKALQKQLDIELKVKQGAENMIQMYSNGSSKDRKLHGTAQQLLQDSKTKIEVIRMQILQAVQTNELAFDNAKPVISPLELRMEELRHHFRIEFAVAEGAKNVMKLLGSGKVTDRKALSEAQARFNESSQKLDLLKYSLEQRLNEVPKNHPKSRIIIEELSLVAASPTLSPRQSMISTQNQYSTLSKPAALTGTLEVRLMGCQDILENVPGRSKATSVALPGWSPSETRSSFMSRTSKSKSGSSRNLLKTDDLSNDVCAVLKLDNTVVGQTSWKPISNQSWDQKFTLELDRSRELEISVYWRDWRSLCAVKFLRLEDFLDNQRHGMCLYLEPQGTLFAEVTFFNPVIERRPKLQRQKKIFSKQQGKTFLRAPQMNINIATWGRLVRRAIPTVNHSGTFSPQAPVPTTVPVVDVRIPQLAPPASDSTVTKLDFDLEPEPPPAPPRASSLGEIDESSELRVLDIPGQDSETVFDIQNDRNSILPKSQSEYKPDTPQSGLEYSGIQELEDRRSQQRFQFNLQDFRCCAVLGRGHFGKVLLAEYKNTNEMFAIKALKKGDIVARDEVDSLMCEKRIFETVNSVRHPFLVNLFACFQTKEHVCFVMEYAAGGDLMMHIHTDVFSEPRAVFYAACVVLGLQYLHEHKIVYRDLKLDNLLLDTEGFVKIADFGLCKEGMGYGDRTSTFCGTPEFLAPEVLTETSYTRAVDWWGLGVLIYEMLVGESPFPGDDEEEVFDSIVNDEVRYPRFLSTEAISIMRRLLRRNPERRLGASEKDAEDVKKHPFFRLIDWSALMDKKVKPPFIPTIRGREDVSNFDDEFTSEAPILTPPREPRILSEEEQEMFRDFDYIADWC

[4] = molecular target: Serine/threonine-protein kinase Chk2 (Homo sapiens) (UniProt O96017); test: Percentage CHK2 activity remaining in the presence of 25uM inhibitor
Sequence of Serine/threonine-protein kinase Chk2 (Homo sapiens) (O96017 whole entry): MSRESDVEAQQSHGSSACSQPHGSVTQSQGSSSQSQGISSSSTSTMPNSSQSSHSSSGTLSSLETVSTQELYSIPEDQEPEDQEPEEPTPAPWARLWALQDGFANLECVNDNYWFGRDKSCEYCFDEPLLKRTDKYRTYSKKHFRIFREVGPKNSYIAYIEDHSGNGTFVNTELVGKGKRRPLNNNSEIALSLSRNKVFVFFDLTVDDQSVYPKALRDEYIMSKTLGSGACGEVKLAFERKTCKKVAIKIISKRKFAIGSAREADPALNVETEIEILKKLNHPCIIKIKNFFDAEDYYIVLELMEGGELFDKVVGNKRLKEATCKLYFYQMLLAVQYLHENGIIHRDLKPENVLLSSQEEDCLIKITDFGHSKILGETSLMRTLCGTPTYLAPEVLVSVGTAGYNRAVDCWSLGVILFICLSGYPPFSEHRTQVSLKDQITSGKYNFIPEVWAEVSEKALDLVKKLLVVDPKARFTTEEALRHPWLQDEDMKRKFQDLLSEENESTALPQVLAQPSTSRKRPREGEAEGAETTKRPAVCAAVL

[5] = molecular target: T1, Protein kinase C zeta type (Homo sapiens) (UniProt Q05513); test: Percentage PKCzeta activity remaining in the presence of 25uM inhibitor
T1 sequence (whole entry): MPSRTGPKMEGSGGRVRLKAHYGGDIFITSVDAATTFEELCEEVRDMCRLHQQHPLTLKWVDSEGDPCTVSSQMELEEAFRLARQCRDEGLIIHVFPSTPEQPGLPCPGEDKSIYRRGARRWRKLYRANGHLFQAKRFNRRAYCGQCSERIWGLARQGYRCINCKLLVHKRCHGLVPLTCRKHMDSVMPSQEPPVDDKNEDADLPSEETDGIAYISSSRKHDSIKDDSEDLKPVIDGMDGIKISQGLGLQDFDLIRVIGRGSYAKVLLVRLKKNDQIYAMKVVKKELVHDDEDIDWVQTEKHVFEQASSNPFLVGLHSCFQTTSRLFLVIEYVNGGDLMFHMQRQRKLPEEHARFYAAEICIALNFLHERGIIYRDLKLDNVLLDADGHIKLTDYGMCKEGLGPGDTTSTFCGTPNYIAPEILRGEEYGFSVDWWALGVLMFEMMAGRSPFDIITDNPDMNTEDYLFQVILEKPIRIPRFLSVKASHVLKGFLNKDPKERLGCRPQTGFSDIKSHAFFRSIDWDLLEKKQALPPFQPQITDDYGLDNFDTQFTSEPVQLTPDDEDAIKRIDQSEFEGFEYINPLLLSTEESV

[6] = molecular target: Maternal embryonic leucine zipper kinase (Homo sapiens) (UniProt Q14680); test: Percentage MELK activity remaining in the presence of 25uM inhibitor
Sequence of Maternal embryonic leucine zipper kinase (Homo sapiens) (Q14680 whole entry, looked up): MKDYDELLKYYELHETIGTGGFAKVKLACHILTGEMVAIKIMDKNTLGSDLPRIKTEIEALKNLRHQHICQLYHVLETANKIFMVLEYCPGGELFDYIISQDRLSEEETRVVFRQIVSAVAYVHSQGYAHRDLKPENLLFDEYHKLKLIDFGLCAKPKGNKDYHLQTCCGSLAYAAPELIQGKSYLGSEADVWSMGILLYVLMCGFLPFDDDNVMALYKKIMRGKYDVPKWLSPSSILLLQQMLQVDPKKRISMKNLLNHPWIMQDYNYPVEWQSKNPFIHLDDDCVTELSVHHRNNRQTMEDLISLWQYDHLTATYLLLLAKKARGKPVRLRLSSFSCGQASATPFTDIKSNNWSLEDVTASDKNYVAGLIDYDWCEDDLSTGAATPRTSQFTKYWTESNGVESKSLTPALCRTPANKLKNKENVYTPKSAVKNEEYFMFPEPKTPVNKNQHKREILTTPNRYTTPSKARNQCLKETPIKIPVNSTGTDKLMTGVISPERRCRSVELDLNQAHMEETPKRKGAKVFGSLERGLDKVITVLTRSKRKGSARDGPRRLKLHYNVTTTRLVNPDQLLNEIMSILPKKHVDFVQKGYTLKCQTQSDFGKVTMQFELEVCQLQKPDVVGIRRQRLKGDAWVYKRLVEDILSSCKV

[7] = molecular target: Calcium/calmodulin-dependent protein kinase kinase 1 (Homo sapiens) (UniProt Q8N5S9); test: Percentage CaMKKalpha activity remaining in the presence of 25uM inhibitor
Aurora kinase B = Aurora kinase B (Homo sapiens, UniProt Q96GD4); test: Percentage Aurora B activity remaining in the presence of 25uM inhibitor
Sequence of Aurora kinase B (Q96GD4 whole entry): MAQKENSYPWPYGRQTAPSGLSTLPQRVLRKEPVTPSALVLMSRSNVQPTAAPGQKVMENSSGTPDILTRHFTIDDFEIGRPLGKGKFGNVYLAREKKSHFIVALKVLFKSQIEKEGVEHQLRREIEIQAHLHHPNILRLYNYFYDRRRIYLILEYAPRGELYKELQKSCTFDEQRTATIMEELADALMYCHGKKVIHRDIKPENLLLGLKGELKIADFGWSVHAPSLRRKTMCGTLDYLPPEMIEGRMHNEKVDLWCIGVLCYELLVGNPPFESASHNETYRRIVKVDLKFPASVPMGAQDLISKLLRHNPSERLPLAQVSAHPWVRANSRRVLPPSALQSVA

[8] = molecular target: Serine/threonine-protein kinase Nek6 (Homo sapiens) (UniProt Q9HC98); test: Percentage NEK6 activity remaining in the presence of 25uM inhibitor
Sequence of Serine/threonine-protein kinase Nek6 (Homo sapiens) (Q9HC98 whole entry): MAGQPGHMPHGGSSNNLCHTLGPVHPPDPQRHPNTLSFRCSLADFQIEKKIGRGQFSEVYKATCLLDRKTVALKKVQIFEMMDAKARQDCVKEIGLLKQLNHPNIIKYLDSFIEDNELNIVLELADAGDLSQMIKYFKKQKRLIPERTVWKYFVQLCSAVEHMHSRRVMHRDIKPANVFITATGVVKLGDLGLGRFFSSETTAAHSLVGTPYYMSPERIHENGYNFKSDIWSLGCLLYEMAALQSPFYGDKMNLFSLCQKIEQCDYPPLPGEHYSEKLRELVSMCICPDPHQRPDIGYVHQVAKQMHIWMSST

[9] = molecular target: T2, Mitogen-activated protein kinase 15 (Homo sapiens) (UniProt Q8TD08); test: Percentage ERK8 activity remaining in the presence of 25uM inhibitor
T2 sequence (whole entry): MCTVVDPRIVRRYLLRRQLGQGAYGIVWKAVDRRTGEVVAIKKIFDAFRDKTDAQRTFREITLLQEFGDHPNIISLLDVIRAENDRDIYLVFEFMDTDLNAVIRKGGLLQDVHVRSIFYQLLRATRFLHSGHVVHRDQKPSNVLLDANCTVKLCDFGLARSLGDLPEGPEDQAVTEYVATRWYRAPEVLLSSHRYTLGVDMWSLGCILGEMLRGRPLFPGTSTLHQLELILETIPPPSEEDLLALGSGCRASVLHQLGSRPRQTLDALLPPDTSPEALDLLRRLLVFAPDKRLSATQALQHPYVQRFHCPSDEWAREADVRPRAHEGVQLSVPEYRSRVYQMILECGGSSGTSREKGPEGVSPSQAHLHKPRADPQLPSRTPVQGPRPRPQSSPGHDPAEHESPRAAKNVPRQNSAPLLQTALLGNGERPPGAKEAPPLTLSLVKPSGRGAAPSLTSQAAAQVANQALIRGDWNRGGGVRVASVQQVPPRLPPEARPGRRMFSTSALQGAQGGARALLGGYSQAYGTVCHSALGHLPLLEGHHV

[10] = molecular target: T3, Serine/threonine-protein kinase BRSK2 (Homo sapiens) (UniProt Q8IWQ3); test: Percentage BRSK2 activity remaining in the presence of 25uM inhibitor
T3 sequence (whole entry): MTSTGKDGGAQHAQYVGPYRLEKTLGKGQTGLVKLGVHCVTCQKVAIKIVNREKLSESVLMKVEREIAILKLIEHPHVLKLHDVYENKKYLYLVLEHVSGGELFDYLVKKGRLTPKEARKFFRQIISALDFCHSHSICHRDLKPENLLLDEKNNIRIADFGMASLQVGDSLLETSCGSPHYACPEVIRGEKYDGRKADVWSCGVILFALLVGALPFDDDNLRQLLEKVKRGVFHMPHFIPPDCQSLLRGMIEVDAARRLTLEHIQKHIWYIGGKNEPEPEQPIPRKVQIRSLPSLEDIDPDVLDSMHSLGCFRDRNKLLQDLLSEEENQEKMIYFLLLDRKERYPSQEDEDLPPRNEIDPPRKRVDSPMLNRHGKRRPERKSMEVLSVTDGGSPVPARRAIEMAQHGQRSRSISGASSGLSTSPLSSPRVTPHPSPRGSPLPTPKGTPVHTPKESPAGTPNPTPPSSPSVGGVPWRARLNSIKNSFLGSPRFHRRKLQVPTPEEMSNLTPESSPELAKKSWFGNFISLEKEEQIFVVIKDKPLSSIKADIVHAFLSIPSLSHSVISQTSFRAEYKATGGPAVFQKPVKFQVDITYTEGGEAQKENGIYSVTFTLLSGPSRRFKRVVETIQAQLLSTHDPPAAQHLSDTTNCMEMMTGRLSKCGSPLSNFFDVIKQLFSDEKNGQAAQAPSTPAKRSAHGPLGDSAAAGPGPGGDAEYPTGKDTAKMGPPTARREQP

[11] = molecular target: Serine/threonine-protein kinase Nek7 (Homo sapiens) (UniProt Q8TDX7); test: Percentage NEK7 activity remaining in the presence of 25uM inhibitor
Sequence of Serine/threonine-protein kinase Nek7 (Homo sapiens) (Q8TDX7 whole entry, looked up): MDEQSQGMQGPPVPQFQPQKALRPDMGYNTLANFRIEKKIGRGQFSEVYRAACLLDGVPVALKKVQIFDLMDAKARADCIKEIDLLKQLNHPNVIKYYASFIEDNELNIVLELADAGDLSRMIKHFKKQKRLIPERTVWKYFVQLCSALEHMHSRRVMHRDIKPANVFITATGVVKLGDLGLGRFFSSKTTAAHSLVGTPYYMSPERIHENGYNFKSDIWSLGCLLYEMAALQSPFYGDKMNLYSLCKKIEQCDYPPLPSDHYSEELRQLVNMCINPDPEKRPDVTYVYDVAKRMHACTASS

[12] = molecular target: Ribosomal protein S6 kinase alpha-3 (Homo sapiens) (UniProt P51812); test: Percentage RSK2 activity remaining in the presence of 25uM inhibitor
Sequence of Ribosomal protein S6 kinase alpha-3 (Homo sapiens) (P51812 whole entry): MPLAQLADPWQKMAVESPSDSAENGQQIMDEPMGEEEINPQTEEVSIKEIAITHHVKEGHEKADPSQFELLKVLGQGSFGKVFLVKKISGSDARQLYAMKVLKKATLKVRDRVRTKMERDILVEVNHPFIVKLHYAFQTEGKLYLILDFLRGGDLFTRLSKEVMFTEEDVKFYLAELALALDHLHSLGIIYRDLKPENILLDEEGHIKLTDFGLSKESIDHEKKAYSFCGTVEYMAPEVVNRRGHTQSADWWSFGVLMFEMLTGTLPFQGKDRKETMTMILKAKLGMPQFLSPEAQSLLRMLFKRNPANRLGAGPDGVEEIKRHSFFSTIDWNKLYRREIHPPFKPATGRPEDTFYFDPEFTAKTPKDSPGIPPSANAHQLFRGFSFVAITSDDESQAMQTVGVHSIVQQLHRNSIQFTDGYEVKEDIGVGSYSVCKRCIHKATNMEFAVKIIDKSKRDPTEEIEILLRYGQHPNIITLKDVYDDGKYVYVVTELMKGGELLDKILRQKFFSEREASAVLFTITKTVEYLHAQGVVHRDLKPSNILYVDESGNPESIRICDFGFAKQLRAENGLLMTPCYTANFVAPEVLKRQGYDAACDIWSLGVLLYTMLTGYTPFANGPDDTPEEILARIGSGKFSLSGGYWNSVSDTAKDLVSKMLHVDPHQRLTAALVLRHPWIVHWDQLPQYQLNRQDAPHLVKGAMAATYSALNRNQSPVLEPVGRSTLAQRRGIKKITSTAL

[13] = molecular target: MAP kinase-activated protein kinase 3 (Homo sapiens) (UniProt Q16644); test: Percentage MAPKAPK3 activity remaining in the presence of […]uM inhibitor; settings: at 25 µM
Sequence of MAP kinase-activated protein kinase 3 (Homo sapiens) (Q16644 whole entry, looked up): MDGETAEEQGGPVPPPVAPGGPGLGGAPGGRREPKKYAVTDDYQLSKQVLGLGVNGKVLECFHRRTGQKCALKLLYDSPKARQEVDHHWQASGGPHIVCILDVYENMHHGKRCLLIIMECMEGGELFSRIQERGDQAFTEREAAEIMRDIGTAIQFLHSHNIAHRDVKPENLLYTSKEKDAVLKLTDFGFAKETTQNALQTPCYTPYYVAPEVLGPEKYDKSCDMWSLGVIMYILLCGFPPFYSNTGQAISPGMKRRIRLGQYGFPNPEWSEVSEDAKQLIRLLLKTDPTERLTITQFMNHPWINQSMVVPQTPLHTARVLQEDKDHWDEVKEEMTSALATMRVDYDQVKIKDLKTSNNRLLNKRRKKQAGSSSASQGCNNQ

[14] = molecular target: Mitogen-activated protein kinase 11 (Homo sapiens) (UniProt Q15759); test: Percentage p38beta activity remaining in the presence of 25uM inhibitor
[15] = molecular target: Casein kinase II (Homo sapiens) (UniProt P67870+P68400+P19784); test: Percentage CK2 activity remaining in the presence of 25uM inhibitor; format: protein-complex assay
[16] = molecular target: MAP/microtubule affinity-regulating kinase 3 (Homo sapiens) (UniProt P27448); test: Percentage MARK3 activity remaining in the presence of 0.01uM inhibitor; settings: filed as antagonist
Sequence of MAP/microtubule affinity-regulating kinase 3 (Homo sapiens) (P27448 whole entry, looked up): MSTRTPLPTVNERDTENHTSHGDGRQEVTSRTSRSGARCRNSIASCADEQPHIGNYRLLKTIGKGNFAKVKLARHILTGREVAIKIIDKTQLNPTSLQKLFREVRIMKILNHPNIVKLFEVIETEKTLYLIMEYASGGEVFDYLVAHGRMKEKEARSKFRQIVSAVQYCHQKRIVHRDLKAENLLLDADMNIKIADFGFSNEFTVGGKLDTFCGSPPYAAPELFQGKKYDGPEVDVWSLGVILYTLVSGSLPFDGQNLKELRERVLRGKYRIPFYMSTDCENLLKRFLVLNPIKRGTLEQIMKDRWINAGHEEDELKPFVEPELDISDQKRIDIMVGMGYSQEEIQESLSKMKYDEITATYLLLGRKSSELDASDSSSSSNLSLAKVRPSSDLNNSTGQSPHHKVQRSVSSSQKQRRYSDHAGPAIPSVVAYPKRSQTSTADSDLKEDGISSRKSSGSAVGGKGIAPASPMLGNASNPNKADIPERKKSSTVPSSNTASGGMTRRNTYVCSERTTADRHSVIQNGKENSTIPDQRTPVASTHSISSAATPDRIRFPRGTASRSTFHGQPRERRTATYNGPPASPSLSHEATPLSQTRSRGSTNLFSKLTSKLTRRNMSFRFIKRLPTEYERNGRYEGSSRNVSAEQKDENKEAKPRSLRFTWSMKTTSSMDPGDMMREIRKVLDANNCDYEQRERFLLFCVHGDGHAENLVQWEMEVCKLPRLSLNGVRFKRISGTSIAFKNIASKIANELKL

[17] = molecular target: Serine/threonine-protein kinase Chk2 (Homo sapiens) (UniProt O96017); test: Percentage CHK2 activity remaining in the presence of 0.01uM inhibitor

| SMILES | Activity [1] [%] | Activity [2] [%] | Activity [4] [%] | Activity [5] [%] | Activity [6] [%] | Activity [7] [%] | Activity (Aurora kinase B) [%] | Activity [8] [%] | Activity [11] [%] | Activity [12] [%] | Activity [13] [%] | Activity [14] [%] | Activity [15] [%] | Activity [16] [%] | Activity [17] [%] | other results |
| --- | --- | --- | --- | --- | --- | --- | --- | --- | --- | --- | --- | --- | --- | --- | --- | --- |
| COc1cc(OC)c(/C=C2/C(=O)Nc3ccccc32)c(OC)c1 | 88 | 83 | 76 | 80 | 75 | 67 | 75 | 95 | 103 | 89 | 94 | 97 | 97 |  |  | Activity [3]: 87%; Activity [9]: 68%; Activity [10]: 88% |
| NCCNS(=O)(=O)c1ccc(Cl)c2ccncc12 | 85 | 62 | 64 | 52 | 63 | 86 | 78 | 90 | 102 | 63 | 86 | 101 | 65 |  |  | Activity ([3]; filed as antagonist): 47%; Activity ([9]; filed as antagonist): 29%; Activity ([10]; filed as antagonist): 42% |
| CN[C@@H]1C[C@H]2O[C@@](C)([C@@H]1OC)n1c3ccccc3c3c4c(c5c6ccccc6n2c5c31)C(=O)N[C@H]4O (stereo in doubt) |  |  |  |  |  |  |  |  |  |  |  |  |  | 6 | 96 |  |
| O=C(NCCCNc1nc(Nc2cccc(NC(=O)N3CCCC3)c2)ncc1I)c1cccs1 |  |  |  |  |  |  |  |  |  |  |  |  |  | 12 | 91 |  |
